Test results reported in patent publication US7691836B2, “Progesterone receptor modulators” (N.V. Organon, priority 2004, dated 2010).
Where a name gives a salt, the structure may show the parent alone.

Columns and labels:
[1] = biological target: T1, progesterone receptor-B (Homo sapiens, UniProt P06401); experiment: Progesterone receptor-B transactivation, antagonistic mode (inhibition of luciferase transactivation by inducer, CHO cells); assay type: cell-based; conditions: for Emax: CHO, read-out: PRBant Eff (%); for EC50: in the presence of 0.1 nM inducer (16α)-16-ethyl-21-hydroxy-19-norpregn-4-ene-3,20-dione, read-out: PRBant EC50
T1 sequence (P06401 1-933): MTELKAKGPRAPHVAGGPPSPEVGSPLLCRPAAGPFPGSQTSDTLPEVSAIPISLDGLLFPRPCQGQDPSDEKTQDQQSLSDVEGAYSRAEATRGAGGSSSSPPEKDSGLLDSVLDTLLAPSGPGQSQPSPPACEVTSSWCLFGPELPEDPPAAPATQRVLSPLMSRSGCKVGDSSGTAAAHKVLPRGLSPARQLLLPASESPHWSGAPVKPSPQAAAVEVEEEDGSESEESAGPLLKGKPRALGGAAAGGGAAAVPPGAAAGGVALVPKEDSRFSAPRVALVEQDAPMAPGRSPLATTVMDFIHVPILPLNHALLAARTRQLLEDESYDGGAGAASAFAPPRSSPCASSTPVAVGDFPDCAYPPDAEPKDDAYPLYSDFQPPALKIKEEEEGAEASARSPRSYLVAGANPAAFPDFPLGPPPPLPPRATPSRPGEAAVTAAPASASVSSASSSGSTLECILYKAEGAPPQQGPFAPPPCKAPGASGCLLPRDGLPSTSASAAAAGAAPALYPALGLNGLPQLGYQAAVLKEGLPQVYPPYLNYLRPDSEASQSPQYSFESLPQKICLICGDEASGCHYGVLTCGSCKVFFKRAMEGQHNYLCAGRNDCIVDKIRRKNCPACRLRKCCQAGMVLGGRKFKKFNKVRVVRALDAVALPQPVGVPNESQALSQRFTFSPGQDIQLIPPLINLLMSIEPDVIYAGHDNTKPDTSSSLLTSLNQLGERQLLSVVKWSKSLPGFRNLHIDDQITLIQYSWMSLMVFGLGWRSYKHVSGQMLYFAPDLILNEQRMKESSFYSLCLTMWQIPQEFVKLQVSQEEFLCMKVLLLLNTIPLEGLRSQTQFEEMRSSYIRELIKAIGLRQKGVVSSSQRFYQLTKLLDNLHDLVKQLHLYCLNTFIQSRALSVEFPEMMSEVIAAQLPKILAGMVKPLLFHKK
Experimental: In the antagonistic mode, testing must result in an intrinsic activity of between about 85% and about 15% of the maximal activity when (6β,11β,17β)-11-[4-(dimethylamino)phenyl]-4′,5′-dihydro-6-methylspiro[estra-4,9-diene-17,2′(3′H)-furan]-3-one is used as a reference.
(§1) The progestagenic activity of a compound of the invention (EC50 and intrinsic agonistic activity) was determined in an in vitro bioassay of Chinese hamster ovary (CHO) cells as described by W. G. E. J. Schoonen et al. (Anal. Biochem. 261 (1998), 222-224). […] The efficacy of the antagonistic effect was expressed as the percentage of the effect produced by a standard antagonist, (6β,11β,17β)-11-[4-(dimethylamino)phenyl]-4′,5′-dihydro-6-methylspiro[estra-4,9-diene-17,2′(3′H)-furan]-3-one.
(§2) It will be recognized by those skilled in the art that, in the setting described above, the EC50 determined is more or less absolute and depends on the intrinsic property of the tested compound itself, however, the IC50 depends on the amount and agonistic EC50 of the inducer as well as on the intrinsic property of the tested compound itself. Thus, with the same amount of inducer, a relatively strong antagonist will be able to produce a measurable IC50 whereas a relatively weak antagonist may fail to produce a detectable result.

[2] = biological target: T1, progesterone receptor-B; experiment: Progesterone receptor-B transactivation, agonistic mode (CHO cells, luciferase); assay type: cell-based; conditions: for EC50: CHO cells, agonistic mode, read-out: PRBagoEC50; for Emax: CHO, read-out: PRBago Eff (%)
Source text: For selecting compounds of the subject invention with a mixed modulating effect on the progesterone receptor, testing in the agonistic mode must result in an intrinsic activity of between about 15% and about 85% of the maximal activity when (16α)-16-ethyl-21-hydroxy-19-norpregn-4-ene-3,20-dione is used as a reference. Moreover, this maximal agonistic activity should be reached at a concentration of 10^−6 or less, and preferably at a concentration of 10^−8 or less.
as §1, §2

[3] = intrinsic antagonistic activity, percentage of effect of standard antagonist (6β,11β,17β)-11-[4-(dimethylamino)phenyl]-4′,5′-dihydro-6-methylspiro[estra-4,9-diene-17,2′(3′H)-furan]-3-one, 0.1 nM inducer
[4] = intrinsic agonistic activity, relative to reference (16α)-16-ethyl-21-hydroxy-19-norpregn-4-ene-3,20-dione

Compound | Emax [1, 3] | EC50 [1] | EC50 [2] | Emax [2, 4] | PRBant Eff (%) ([1]; intrinsic antagonistic activity, percentage of effect of standard antagonist (6β,11β,17β)-11-[4-(dimethylamino)phenyl]-4′,5′-dihydro-6-methylspiro[estra-4,9-diene-17,2′(3′H)-furan]-3-one, 0.1 nM inducer, hydrochloride) | PRBago Eff (%) [2, 4]
C[C@@H]1C[C@H]2[C@@H]3CCC4=CC(=O)CCC4=C3[C@@H](c3ccc(-c4ccccn4)cc3)C[C@]2(C)[C@H]1C(=O)C1CC1 [Example 10, (11β,16α,17β)-17-cyclopropylcarbonyl-16-methyl-11-[4-(2-pyridinyl)phenyl]estra-4,9-dien-3-one] | 32.5% | 14.8 nM | 2.6 nM | 49.2% | – | –
C[C@@H]1C[C@H]2[C@@H]3CCC4=CC(=O)CCC4=C3[C@@H](c3ccc(-c4ccncc4)cc3)C[C@]2(C)[C@H]1C(=O)C1CC1 [Example 12, (11β,16α,17β)-17-cyclopropylcarbonyl-16-methyl-11-[4-(4-pyridinyl)phenyl]estra-4,9-dien-3-one] | 26.5% | 2.5 nM | 4 nM | 56% | – | –
C[C@]12C[C@H](c3ccc(-c4cccnc4)cc3)C3=C4CCC(=O)C=C4CC[C@H]3[C@@H]1C[C@@H](/C=C/c1ccccc1)[C@@H]2C(=O)C1CC1 [Example 14, [11β,16α(E),17β]-17-cyclopropylcarbonyl-16-(2-phenylethenyl)-11-[4-(3-pyridinyl)phenyl]estra-4,9-dien-3-one] | 34.5% | 29 nM | 5.7 nM | 49.8% | – | –
CC[C@@H]1C[C@H]2[C@@H]3CCC4=CC(=O)CCC4=C3[C@@H](c3ccc(-c4ccc(OC)nc4)cc3)C[C@]2(C)[C@H]1C(=O)C1CC1 [Example 17, (11β,16α,17β)-17-cyclopropylcarbonyl-16-ethyl-11-[4-(6-methoxy-pyridin-3-yl)phenyl]-estra-4,9-dien-3-one] | 51.7% | 7.89 nM | 1.3 nM | 42% | – | –
C[C@]12C[C@H](c3ccc(-c4cccnc4)cc3)C3=C4CCC(=O)C=C4CC[C@H]3[C@@H]1C[C@H]1C[C@]12C(=O)C1CC1 [Example 21, (11β,16α,17β)-17-cyclopropylcarbonyl-16,17-dihydro-11-[4-(3-pyridinyl)phenyl]-3′H-cyclopropa[16,17]estra 4,9,16-trien-3-one] | 58% | 1.4 nM | 2 nM | 18% | – | –
C[C@@H]1C[C@H]2[C@@H]3CCC4=CC(=NO)CCC4=C3[C@@H](c3ccc(-c4cccnc4)cc3)C[C@]2(C)[C@H]1C(=O)C1CC1 [Example 22, (11β,16α,17β)-17-cyclopropylcarbonyl-16-methyl-11-[4-(3-pyridinyl)-phenyl]estra-4,9-dien-3-one 3-oxime] | 32% | 1.47 nM | 0.64 nM | 43% | – | –
CC12CC(c3ccc(-c4cccnc4)cc3)C3=C4CCC(=O)C=C4CCC3C1CCC21CCCC1=O (stereo not drawn) [Example 25, (11β)-11-[4-(3-pyridinyl)phenyl]-17,24-cyclo-19,21-dinorchola-4,9-diene-3,20-dione hydrochloride] | – | 1.1 nM | 0.48 nM | – | 66% | 17%
C[C@@H]1C[C@@H]2C(=C3CCC(=O)C=C31)[C@@H](c1ccc(-c3cccnc3)cc1)C[C@@]1(C)[C@H]2C[C@@H](C)[C@@H]1C(=O)C1CC1 [Example 26, (6β,11β,16α,17β)-17-cyclopropylcarbonyl-6,16-dimethyl-11-[4-(3-pyridinyl)-phenyl]estra-4,9-dien-3-one] | 17% | 2.75 nM | 0.809 nM | 46% | – | –

These reach a lower EC50 [1]. Values come first.

Emax [1, 3] | EC50 [1] | EC50 [2] | Emax [2, 4] | PRBant Eff (%) ([1]; intrinsic antagonistic activity, percentage of effect of standard antagonist (6β,11β,17β)-11-[4-(dimethylamino)phenyl]-4′,5′-dihydro-6-methylspiro[estra-4,9-diene-17,2′(3′H)-furan]-3-one, 0.1 nM inducer, hydrochloride) | PRBago Eff (%) [2, 4] | Compound
35% | 0.8 nM | 1.7 nM | 56% | – | – | Cc1ccc(-c2ccc([C@H]3C[C@@]4(C)[C@@H](C[C@@H](C)[C@@H]4C(=O)C4CC4)[C@@H]4CCC5=CC(=O)CCC5=C43)cc2)nc1 [Example 11]
38% | 0.61 nM | 0.66 nM | 46.8% | – | – | C=C[C@@H]1C[C@H]2[C@@H]3CCC4=CC(=O)CCC4=C3[C@@H](c3ccc(-c4cccnc4)cc3)C[C@]2(C)[C@H]1C(=O)C1CC1 [Example 13, (11β,16α,17β)-17-cyclopropylcarbonyl-16-ethenyl-11-[4-(3-pyridinyl)phenyl]estra-4,9-dien-3-one]
44.5% | 0.98 nM | 0.74 nM | 41.4% | – | – | C=C[C@@H]1C[C@H]2[C@@H]3CCC4=CC(=O)CCC4=C3[C@@H](c3ccc(-c4ccc(OC)nc4)cc3)C[C@]2(C)[C@H]1C(=O)C1CC1 [Example 15, (11β,16α,17β)-17-(cyclopropylcarbonyl)-16-ethenyl-11-[4-(6-methoxypyridin-3-yl)phenyl]estra-4,9-dien-3-one]
53% | 0.596 nM | 0.23 nM | 34% | – | – | CC[C@@H]1C[C@H]2[C@@H]3CCC4=CC(=O)CCC4=C3[C@@H](c3ccc(-c4cccnc4)cc3)C[C@]2(C)[C@H]1C(=O)C1CC1 [Example 16, (11β,16α,17β)-17-cyclopropylcarbonyl-16-ethyl-11-[4-(3-pyridinyl)-phenyl]-estra-4,9-dien-3-one]
66% | 0.751 nM | 0.82 nM | 36% | – | – | C[C@]12C[C@H](c3ccc(-c4cccnc4)cc3)C3=C4CCC(=O)C=C4CC[C@H]3[C@@H]1CC[C@@H]2C(=O)C1CC1 [Example 18, (11β,17β)-17-cyclopropylcarbonyl-11-[4-(3-pyridinyl)phenyl]estra-4,9-dien-3-one]
57% | 0.427 nM | 0.51 nM | 28.3% | – | – | COc1ccc(-c2ccc([C@H]3C[C@]4(C)[C@@H](C(=O)C5CC5)CC[C@H]4[C@@H]4CCC5=CC(=O)CCC5=C43)cc2)cn1 [Example 19, (11β,17β)-17-cyclopropylcarbonyl-11-[4-(6-methoxypyridin-3-yl)phenyl]estra-4,9-dien-3-one]
58% | 0.13 nM | 0.49 nM | 37.5% | – | – | C[C@]12C[C@H](c3ccc(-c4cccnc4)cc3)C3=C4CCC(=O)C=C4CC[C@H]3[C@@H]1CC[C@]2(C)C(=O)C1CC1 [Example 20, (11β,17β)-17-cyclopropylcarbonyl-17-methyl-11-[4-(3-pyridinyl)-phenyl]estra-4,9-dien-3-one]
70.8% | 0.325 nM | 0.29 nM | 17% | – | – | CC12CC(c3ccc(-c4cccnc4)cc3)C3=C4CCC(=O)C=C4CCC3C1CCC21CCCC1=O (stereo not drawn) [Example 23, (11β)-11-[4-(3-pyridinyl)phenyl]-17,24-cyclo-19,21-dinorchola 4,9-diene-3,20-dione]
62% | 0.546 nM | 0.15 nM | 20% | – | – | COc1ccc(-c2ccc([C@H]3C[C@@]4(C)[C@@H](CC[C@@]45CCCC5=O)[C@@H]4CCC5=CC(=O)CCC5=C43)cc2)cn1 [Example 24, (11β)-11-[4-(6-methoxypyridin-3-yl)phenyl]-17,24-cyclo-19,21-dinorchola 4,9-diene-3,20-dione]
